39 compounds from PubChem BioAssay (NCI) can be followed below.

Test in all cases: NCI-60 cell line screen, 48 h
Assay [1] concerns EKVX NSCLC.
Assay [2] has as its system HCT-116 colon.
The test system of assay [3] is HT29 colon.
For assay [4], the system named is MDA-MB-231 breast.
For assay [5], the system named is SF-539 CNS.
Assay [6] relates to SW-620 colon.
Assay [7] concerns RPMI-8226 leukemia.

The structures appear in SMILES notation. Several values for one entry are separate records, joined by “and”; a condition that tells them apart may be missing. Equal values may be shown once.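 Step 1: Grow cells in 96-well plates. Step 2: Expose to compound for 48 hours at 5 concentrations. Step 3: Interpolate endpoints linearly; if unreached, use highest concentration. At the GI50, growth is halved. TGI: concentration producing complete growth inhibition.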 Activity calls are given as the source filed them. No stated cut-off is given here; in the data, active means GI50 below about 0.43 µM; inactive means the rest. Where a SMILES comes first, the peptide text is derived from it. Side-chain parts run from the residue outwards. The star is where a group is joined. Cbz = O=C(OCc1ccccc1)*; Boc = CC(C)(C)OC(=O)*

On to `COc1ccc(N2C(=O)C3c4[nH]c5ccccc5c4C4c5ccccc5CC4C3C2=O)cc1` (stereo unspecified), for which the TGI in assay [1], in assay [2], in assay [3], in assay [4], in assay [5] and in assay [6] was greater than 100 µM in each case.

On to `O=C(c1ccccc1)c1c(C(F)(F)F)n([O-])c2cc(F)c(F)cc2[n+]1=O`, for which the TGI in assay [1] is 5 µM; in assay [3], greater than 100 µM; in assay [7] it was greater than 100 µM; in assay [5] it was 1.67 µM; in assay [6], greater than 100 µM.

Regarding `CC(C)(C)OC(=O)n1c(Cl)c(C=O)c2ccccc21`, the TGI in assay [1] was 76.6 µM; in assay [3] it was greater than 100 µM; in assay [4], 84.5 µM; in assay [7], 44.3 µM; in assay [5], 89.1 µM; in assay [6], greater than 100 µM.

As for `COc1ccc(-c2nc(-c3cnccn3)n(Cc3ccccc3)n2)cc1`, the TGI in assay [2], in assay [3], in assay [4], in assay [7], in assay [5] and in assay [6] was greater than 100 µM throughout.

For `CC(C)(C)OC(=O)NC(CCCCNC(=O)CNC(=O)OCc1ccccc1)C(=O)NC(CCCCNC(=O)CNC(=O)OCc1ccccc1)C(=O)NC(CCCCNC(=O)CNC(=O)OCc1ccccc1)C(=O)NC(CCCCNC(=O)CNC(=O)OCc1ccccc1)C(=O)O` (stereo unspecified) (Boc-K([Gly-Cbz])K([Gly-Cbz])K([Gly-Cbz])K([Gly-Cbz])-OH; configuration not given here), the TGI in assay [2], in assay [3], in assay [4], in assay [7] and in assay [6] was greater than 100 µM each time.

In the case of `COc1ccc(C2=C(Cl)c3cc(OC)c(OC)cc3C2)cc1OC`, the TGI in assay [1], in assay [2], in assay [3], in assay [7], in assay [5] and in assay [6] was greater than 100 µM throughout.

For `CC(=O)c1[nH]c(Nc2ccc(C)cc2)c(C(=S)Nc2ccccc2)c1N`, the TGI in assay [1] was 96.7 µM; in assay [2], 35.4 µM; in assay [3], greater than 100 µM; in assay [4] it was 35.7 µM; in assay [5], greater than 100 µM; in assay [6], 96.9 µM.

With `COc1cc(C(O)C(=O)c2cnc3cc([N+](=O)[O-])ccc3n2)ccc1O` (stereo unspecified), the TGI in assay [1], in assay [2], in assay [3], in assay [7], in assay [5] and in assay [6] was greater than 100 µM throughout.

On to `Cc1c2cccc-2c(OCCOC(=O)n2ccnc2)cc2c1[nH]c1ccccc12`, for which the TGI in assay [1] was 4.18 µM; in assay [2], 10.3 µM; in assay [3], 5.22 µM; in assay [7], 9.9 µM; in assay [6], 14.4 µM.

`COc1cc2c(c(OC)c1OC)-c1ccc(SC)c(=O)cc1[C@@H](NCc1cccc([N+](=O)[O-])c1)CC2`: the TGI in assay [1] was greater than 100 µM; in assay [2], less than 0.01 µM; in assay [3], less than 0.01 µM; in assay [5] it was 0.17 µM; in assay [6], greater than 100 µM.

For the compound `COc1ccc(C2C(C#N)=C(S)N(C3OC(CO)C(O)C(O)C3O)C(C)=C2C(C)=O)cc1` (stereo unspecified), the TGI in assay [2], in assay [3], in assay [4], in assay [7], in assay [5] and in assay [6] was greater than 100 µM throughout.

As for `COc1ccc([C@H]2c3cc4c(cc3OC(O)(CO)[C@H]2C(=O)O)OCO4)c(OC)c1` (stereo partly specified) (tested in a mixture with another compound), the TGI in assay [1], in assay [2], in assay [3], in assay [7], in assay [5] and in assay [6] was greater than 100 µM throughout.

For the compound `COc1ccc(CCCN2c3ccccc3Sc3ccccc32)cc1`, the TGI in assay [1], in assay [2], in assay [3], in assay [7], in assay [5] and in assay [6] was greater than 100 µM each time.

As for `CCn1c(=O)c2c3ccc(OC)cc3[nH]c2c2ccc(OC)cc21`, the TGI in assay [1], in assay [2], in assay [3], in assay [4], in assay [5] and in assay [6] was greater than 100 µM each time.

For `O=C(NN1C(=O)C(Cl)C1c1ccccc1Cl)c1ccccc1O` (stereo unspecified), the TGI in assay [2], in assay [3] and in assay [5] was greater than 100 µM each time.

For `COc1cc(-c2nc3cc(Cl)c(Cl)cc3[nH]2)ccc1OCC(=O)N=Nc1c(O)[nH]c2ccc(Cl)cc12`, the GI50 is 1.7 µM in assay [1], 0.284 µM in assay [2] and 0.538 µM in assay [4]. Further, the TGI was greater than 100 µM in assay [1], 1.2 µM in assay [2] and 1.95 µM in assay [4].

Turning to `CCCCOc1ccc2c(c1)CC[C@@H]1[C@@H]2CC[C@]2(C)C(=O)N(CCCC)C(=O)C[C@@H]12`, the TGI in assay [2], in assay [3], in assay [4] and in assay [7] was greater than 100 µM throughout.

In the case of `O=C1c2cccnc2-c2nccc3c2c1nc1ccc(Br)cc13`, the TGI in assay [1] came to 0.311 µM; in assay [2], 0.0324 µM; in assay [3], 0.723 µM; in assay [4], 0.211 µM; in assay [5], 0.141 µM; in assay [6] it was 0.17 µM.

For the compound `CC1=CC(=O)/C(=C/n2c(=S)[nH]c3cc(C)ccc32)C(=O)O1`, the TGI in assay [1], in assay [2], in assay [3], in assay [4], in assay [5] and in assay [6] was greater than 100 µM each time.

On to `O=S(c1ccc(Cl)cc1)c1ccccc1C1=NCCN1` (stereo unspecified), for which the TGI in assay [1], in assay [2], in assay [3], in assay [4], in assay [7] and in assay [6] was greater than 100 µM throughout.

Consider `O=P(O)(O)CN1CCNCCN(CP(=O)(O)O)CCN(CP(=O)(O)O)CCNCC1`, for which the outcome in assay [1], in assay [4], in assay [5] and in assay [6] was inactive. For the same compound, the GI50 in assay [3] is 49000 µM.

`Cn1c(COC(=O)NC2CCCCC2)c(COC(=O)NC2CCCCC2)c2ccc3cc(C=O)ccc3c21`: the TGI in assay [1], in assay [2], in assay [3], in assay [4], in assay [5] and in assay [6] was greater than 100 µM throughout.

In the case of `C[N+](C)(C)CC(=O)N/N=C(/Cc1nc2ccc([N+](=O)[O-])cc2[nH]c1=O)C(=O)Nc1cc(C(F)(F)F)ccc1Cl`, the TGI in assay [1], in assay [2], in assay [3], in assay [7], in assay [5] and in assay [6] was greater than 100 µM in each case.

In the case of `O=S1(=O)OCCCOS(=O)(=O)C1(Br)Br`, the TGI in assay [1], in assay [2], in assay [3], in assay [7] and in assay [6] was greater than 100 µM each time.

In the case of `CCC(=O)N1C(=O)C(CC)(CC)C(=O)N1C(=O)CC`, the TGI in assay [1], in assay [2], in assay [3], in assay [4], in assay [7] and in assay [6] was greater than 100 µM in each case.

For the compound `O=C(CC(c1ccccc1)C(C(=O)c1ccncc1)C(CC(=O)c1ccncc1)c1ccccc1)c1ccncc1` (stereo unspecified), the TGI in assay [1], in assay [2], in assay [3], in assay [4], in assay [7] and in assay [6] was greater than 100 µM each time.

Take `CC(C)=CCC[C@@H](C)C1=CC(=O)C(C)=C(O)C1=O`: the TGI stood at 13.9 µM in assay [1]; 11.8 µM in assay [2]; 22.5 µM in assay [3]; 18.1 µM in assay [4]; 5.64 µM in assay [7]; 33.5 µM in assay [6].

As for `OCC1OC(c2ccccc2)CC1O` (stereo unspecified), the TGI in assay [1], in assay [2], in assay [3], in assay [4], in assay [5] and in assay [6] was greater than 100 µM throughout.

For the compound `COc1ccc(C2=NNC(c3cc4cc(Br)ccc4nc3Cl)C2)cc1` (stereo unspecified), the TGI in assay [1], in assay [2], in assay [3], in assay [7] and in assay [6] was greater than 25 µM throughout.

For `O=C(Nc1ccc(Sc2ccc(N=Nc3c(O)c(S(=O)(=O)O)cc4cc(S(=O)(=O)O)ccc34)cc2)cc1)c1ccc(N=Nc2c(O)c(S(=O)(=O)O)cc3cc(S(=O)(=O)O)ccc23)cc1`, the TGI in assay [1] is greater than 100 µM; in assay [2], greater than 100 µM; in assay [3], greater than 100 µM; in assay [7], 56.2 µM; in assay [5], greater than 100 µM; in assay [6] it was greater than 100 µM.

On to `CS(=O)(=O)OCC1CCCCCCCCCCC12SCCCS2` (stereo unspecified), for which the TGI in assay [1], in assay [2], in assay [3], in assay [4], in assay [5] and in assay [6] was greater than 100 µM each time.

In the case of `Cc1ccc2c(=O)cc(Cc3csc4ccccc34)[nH]c2n1`, the TGI in assay [1], in assay [2], in assay [3], in assay [4], in assay [7] and in assay [6] was greater than 100 µM throughout.

For the compound `COc1cc2c(c(OC)c1OC)-c1ccc(SC)c(=O)cc1[C@@H](NC(=O)c1ccc([N+](=O)[O-])cc1)CC2`, the TGI is 25 µM in assay [1]; 7.28 µM and 11.7 µM in assay [2]; 25 µM and > 100 µM in assay [7]; 25 µM and > 100 µM in assay [6]. Moreover, the GI50 in assay [3] is less than 0.0025 µM.

On to `CCN(CC)c1ccc2cc(C(N)=O)c(=Nc3ccc(F)cc3)oc2c1`, for which the TGI in assay [1] is greater than 100 µM; in assay [2], greater than 100 µM; in assay [3], greater than 100 µM; in assay [4], 88.5 µM; in assay [7], greater than 100 µM; in assay [6], greater than 100 µM.

`O=C(c1ccccc1O)c1cc(-c2ncc3c(=O)c4ccccc4oc3n2)c(-c2ccccc2O)[nH]c1=O`: the TGI in assay [1] is greater than 92 µM; in assay [2], 47.4 µM; in assay [3], 77.6 µM; in assay [7], 60.4 µM; in assay [5], 20.4 µM; in assay [6] it was greater than 77.1 µM.

Consider `COc1cc(S(=O)(=O)Nc2ccc(-c3csc(N4C(=O)C(C)SC4c4ccccc4)n3)cc2)ccc1Cl` (stereo unspecified), for which the TGI in assay [1], in assay [2], in assay [3], in assay [7], in assay [5] and in assay [6] was greater than 100 µM throughout.

Take `O=Cc1c(Br)[nH]c2ccccc12`: the TGI in assay [1], in assay [2], in assay [3], in assay [7], in assay [5] and in assay [6] was greater than 100 µM throughout.

For the compound `Cc1cc2oc3c(ccc(=O)n3C)c(=O)c2c(C)c1Cl`, the TGI in assay [1] was greater than 100 µM; in assay [2] it was greater than 100 µM; in assay [3], greater than 100 µM; in assay [4] it was greater than 100 µM; in assay [5], 74.6 µM; in assay [6], greater than 100 µM.

Take `Cn1cnc(SC2=C3C(=O)C=C4S[C@H]5C[C@]42c2c(c(O)c4c6c2=[N+]3CCC=6C=N4)N5)c1CC(N)C(=O)O` (stereo partly specified): the TGI was determined as 32.9 µM in assay [1]; 13.3 µM in assay [2]; 17.1 µM in assay [3]; 55.7 µM in assay [7]; 31.8 µM in assay [5]; 18.5 µM in assay [6].
